Data as given in patent US4485088A, “Method of treatment of fibrotic lesions by topical administration of lathyrogenic drugs” (Bio-Products, Inc., priority 1982, dated 1984).
Entries after “also recorded” stand apart in the source; their conditions may differ. Counter-ions that a name gives are not always drawn. Like-named read-outs stand apart in the source and are kept apart here.

How the values were obtained:
[1] = Skin penetration of BAPN base versus BAPN fumarate; format: in vitro ADME; details: BAPN base vs BAPN fumarate
[2] = Storage stability of BAPN base; format: physicochemical
collagen [3] = details: cited from earlier work
[4] = systemic, rats; cited from earlier work
lysyl oxidase [5] = experiment: Lysyl oxidase activity in granuloma tissue after topical application (Example 4); format: in vivo, rats, Sprague-Dawley
Method: Two groups of rats, four rats in each group, 250 g body weight, Sprague-Dawley males, were implanted subcutaneously with a polyvinylalcohol sponge (Ivalon, Unipoint Labs, New Jersey) in the dorsal region through an incision distal from the placement of the sponge.
A solution of 0.1 ml of β-aminopropionitrile (200 mg BAPN/ml) was applied every 12 hours onto the skin over the implanted sponge for a total of seven days. Then the rats were sacrificed, reactive granuloma tissue excised and used for the determination of the activity of lysyl oxidase.
There were four rats in each group.
Variability is given by standard deviation.
Significance of the results tested by Student's t-test.

[6] = Topical cytotoxicity of BAPN; format: in vivo
From the text: Although the pathogenesis of the above disorders may differ, in every one it was postulated that the physical properties of the scar tissue were affected by abnormal cross-linking of the collagenous component. A variety of methods was proposed and used to alleviate the problems of abnormal reactivity of polymerized scar tissue (Peacock and Van Winkle 1976). […] The ideal method of topical administration would be the noninvasive percutaneous resorption of BAPN painted onto the skin as proposed in this disclosure. […] These findings assured me that topical BAPN is safe, effective and optimal therapeutic regimen to achieve significant interference with maturation of collagenous structure in tissues with an injury.

lysyl oxidase [7] = details: cited from earlier work
scleroderma = details: cited from earlier work
human collagen = details: in vivo; cited from earlier work
[8] = systemic, dogs; cited from earlier work
lysyl oxidase [9] = details: single systemic moderate dose; cited from earlier work
[10] = Recovery from urine after administration on skin through hydrophilic bag container (Example 2); format: in vivo, rats
Method: The experimental conditions were similar to those of Example 1 for Group 6. A 0.4 ml solution of 1.1M β-aminopropionitrile fumarate containing 200 mg/ml and 2 μCi of the same ^14 C labeled substance was placed into a hydrophilic bag membrane. This membrane contained 80% water. The container bag was placed onto the shaved skin area of 4 cm^2, covered with impermeable occlusive dressing represented by Blenderm surgical tape (3M, Minnesota). The rats were placed in metabolic cages and at defined time intervals, the urine was collected and the amount of radioactive drug determined.
Time indicates the urine sampling period. Recovery is given in percent of the dose administered into the hydrophilic bag.

[11] = Percutaneous absorption of BAPN-fumarate, drug recovery in urine (Example 1); format: in vivo, rats, Sprague Dawley
Method: Adult rats, Sprague Dawley strain, were shaved on the dorsum. A 0.1 ml solution of 0.16M β-aminopropionitrile fumarate, containing 30 mg BAPN/ml of phosphate buffer (0.1M, pH 7.2) and for easy detection 2 μCi of ^14 C-β-aminopropionitrile fumarate was painted on the shaved skin area 2×2 cm of a rat. In another rat, the shaved skin was washed first with 2% Ivory soap, in the next group the skin area after painting was covered with occlusive bandage. In another group of rats (Table 1) the drug was administered onto the skin the drug in 60% dimethyl sulfoxide, a solvent known to increase percutaneous absorption. Finally, in the last group (Table 1), the basic solution was administered into a small container made of a hydrogel polymer. This hydrogel is characterized by containing 80% water. It makes good contact with the skin, allows penetration of the drug through the container wall, hydrates the skin under the occlusive dressing, thus enhancing the percutaneous transport.
^14 C--BAPNfumarate, 2 μCi in 30 mg BAPNfumarate/ml, 0.1 ml
*% recovered in 24 hours

[12] = Acute toxicity, LD50 (Example 3); parameters: species or system CD-1 mice; details: mouse, in vivo, 24-hour observation
Method: The determination of lethal dose, killing within a certain time after the administration of the tested drug 50% of the exposed animals, is a standard method of evaluation of the toxicity of a drug.
A total of 40 male CD-1 mice with a body weight of 20 g were injected either intraperitoneally with β-aminopropionitrile fumarate or the drug was applied in a solution onto the shaved dorsal aspect of the skin. Four dosage levels spaced in geometric progression were evaluated using five animals for each dose.

[13] = Work of flexion of tenolyzed flexor profundus tendon (Example 5); format: in vivo, White Leghorn chickens
From the text: will document the therapeutic effectiveness of direct infusions of β-aminopropionitrile fumarate solution into the dissected peritendinous adhesions in a rooster model of tendon injury.
Adult White Leghorn chickens were sedated with Pentothal, fixed to the operating table and given metacarpal local anesthesia with 1% xylocaine. Following surgical prep of the foot, a tourniquet was applied. Through a mid-lateral incision the sublimus tendon was removed from the long digit of both feet and a 4-0 braided stainless steel wire was passed through the entire length of the remaining profundus tendon to promote injury to the tendon by "scarification". The incision was closed with a continuous nylon suture, 4-0. Both feet were then incorporated in a plaster of Paris dressing with the feet in a functional position permitting the animals to walk while in the plaster.
Three weeks later the animals were prepared for surgery as above and the original incision was opened. A complete tenolysis was performed freeing the profundus tendon from surrounding fibrotic adhesions. […]
After 5 days of BAPN application the animals were sacrificed, the plaster dressings removed, and the legs amputated. […] The leg was then mounted in an Instron Tensiometer and measured traction was applied to the flexor profundus tendon at a rate of 2.5 cm/min while the flexion of the three digital joints was measured. […]

collagen [14] = details: cited from earlier work; remark: listed apart in the source
lysyl oxidase [15] = details: isoniazid with BAPN; cited from earlier work
monoamine oxidase (MAO) = details: cited from earlier work

N#CCCN [BAPN base]
Skin penetration relative to BAPN fumarate [1]: approximately five times faster
Skin penetration relative to BAPN fumarate ([1]; listed as BAPN-base): higher penetration
Stability under storage [2]: unstable under storage, undergoing hydrolysis forming ammonia and toxic acrylonitrile

N#CCCN [BAPN, β-aminopropionitrile]
General toxicity at lathyrogenic dosages (collagen [3]; systemic, animals): the animals stop growing, lose body weight and lower their food intake
Blocking the polymerization of collagen (collagen [3]; various animal models of fibrotic lesion): very effective
Side effects [4]: undesirable side effects
Tendon gliding / joint stiffness [4]: significantly improve the tendon gliding fraction or reduce stiffness
Inhibition of lysyl oxidase in granuloma tissue (lysyl oxidase [5]; painted onto skin over implanted sponge): significant inhibition of the enzyme activity in the lesion; also recorded: effectively inhibits lysyl oxidase in granuloma tissue
Topical cytotoxicity, morphological or ultrastructural [6]: no morphological or ultrastructural evidence of topical cytotoxicity is found
Concentration inhibiting lysyl oxidase (lysyl oxidase [7]): 10^-7 M
Effectiveness as lathyrogenic agent on lysyl oxidase (lysyl oxidase [7]): the most effective
Reversibility of lysyl oxidase inhibition (lysyl oxidase [7]): irreversible
Toxic side effects, short-term treatment (scleroderma; 2 g/day, short-term): no toxic side effects were noted
Adverse reactions, longer courses (scleroderma; longer courses of treatment): prohibitive reactions, such as allergic skin rash and hemolytic anemia
Covalent bonding of human collagen / clinical benefit (human collagen): decreased covalent bonding of human collagen with significant clinical benefit was demonstrated
Hypersensitivity (human collagen): a significant number of the patients exhibited hypersensitivity to the agent
Side effects [8]: undesirable side effects
Tendon gliding / joint stiffness [8]: significantly improve the tendon gliding fraction or reduce stiffness
Time to recovery of lysyl oxidase activity in granuloma tissue (lysyl oxidase [9]): 6 to 12 h
Recovery in Urine (In % of the Total Dose) ([10]; 4 hours): 0.5%
Recovery in Urine (In % of the Total Dose) ([10]; 8 hours): 1.01%
Recovery in Urine (In % of the Total Dose) ([10]; 12 hours): 2.37%
Recovery in Urine (In % of the Total Dose) ([10]; 24 hours): 5.40%
Recovery in Urine (In % of the Total Dose) ([10]; 72 hours): 9.9%
Recovery in Urine (In % of the Total Dose) ([10]; 96 hours): 15.2%
Recovery in Urine (In % of the Total Dose) ([10]; 120 hours): 22.5%

N#CCCN [BAPN-fumarate, β-aminopropionitrile fumarate]
Lysyl Oxidase Activity in the granuloma tissue (lysyl oxidase [5]; topical, 0.1 ml of 200 mg/ml every 12 hours for seven days, control 36.2 ± 7.1, P < 0.001, standard deviation): 1.8 ± 0.3 DPM/mg protein
Increase of delivery, Group 6 compared with Group 1 ([11]; hydrophilic container with occlusive dressing vs phosphate buffer on intact skin): ~40 times
Drug Recovery in the Urine, % Recovered in 6 hours ([11]; in phosphate buffer in 60% DMSO): 11.66%
Drug Recovery in the Urine, % Recovered in 6 hours ([11]; in phosphate buffer in 60% DMSO, skin washed in 2% Ivory soap): 10.10%
Drug Recovery in the Urine, % Recovered in 6 hours ([11]; in phosphate buffer on intact skin): 0.97%
Drug Recovery in the Urine, % Recovered in 6 hours ([11]; in phosphate buffer, skin washed with 2% Ivory soap): 2.17%
Drug Recovery in the Urine, % Recovered in 6 hours ([11]; in phosphate buffer, skin washed with 2% Ivory soap, occlusive bandage): 10.56%
Drug Recovery in the Urine, % recovered in 24 hours ([11]; in phosphate buffer, skin washed with 2% Ivory soap, hydrophilic container, occlusive bandage, 24 hours): 35.00%
LD50 at 24 h ([12]; ip, intraperitoneally): 3000 mg/kg
LD50 at 24 h ([12]; topical or ocular, percutaneously): 23100 mg/kg
Release / penetration over time ([10]; 120 hours of observation): continuous at the constant rate
Tendon gliding ([13]; topical infusion): glided more easily; much lower force was needed to flex the finger
Work of Flexion (Mean) ([13]; topical infusion every 12 hours for 5 days, 300 mg/ml, SD 4.25, saline control 44.8 (SD 9.9), P < 0.01): 13.10 gm/degree

CC(C)(S)[C@@H](N)C(=O)O [D-penicillamine]
Changes in metal content in tissues and fluids (collagen [14]; after treatment): Striking changes in the metal content in various tissues and fluids
Acute hypersensitivity reactions (collagen [14]; clinical studies, systemic): high incidence of acute hypersensitivity reactions
Decrease of structural stability of collagen (collagen [14]; systemic): well-documented
Direct inhibition of lysyl oxidase (lysyl oxidase [7]): direct inhibition of lysyl oxidase by D-penicillamine was demonstrated

N#CCN [aminoacetonitrile]
Effectiveness as lathyrogenic agent on lysyl oxidase (lysyl oxidase [7]): the most effective

NNC(=O)c1ccncc1 [isoniazid]
Lathyritic effect of BAPN in combination (lysyl oxidase [15]): potentiate the lathyritic effects of BAPN
Lysyl oxidase inhibition (lysyl oxidase [7]): weak lysyl oxidase and MAO inhibitor
Monoamine oxidase (MAO) inhibition (monoamine oxidase (MAO)): weak lysyl oxidase and MAO inhibitor

C#CCN(C)Cc1ccccc1 [pargyline]
Monoamine oxidase (MAO) inhibition (monoamine oxidase (MAO)): monoamine oxidase (MAO) inhibitor
